Measurements taken from the supplement of paper PMC4862054.

Legend:
[1] = system: DU-4475; assay: drug sensitivity score (DSS), CellTox Green (DSS (AUC-based score)); higher = stronger drug effect (viability inhibition or cytotoxicity); extreme values may be limits of the assay; conditions: incubation time: 72 h
Outline: (§1)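 Breast cancer cell lines, seeded as 20 µl suspension, were incubated 72 h with compound in 384-well plates at 5 concentrations in 10-fold steps over a 10,000-fold range set for each compound. Fluorescence from CellTox Green was read at 485/520 nm before CellTiter-Glo luminescence, which was read after 10 min at room temperature. Every plate was normalised to 0.1 % DMSO and a positive kill control, and the drug sensitivity score was taken from the area under the fitted dose-response curve.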

[2] = system: BT-549; assay: as above; conditions: incubation time: 72 h
Outline: as §1

[3] = system: MDA-MB-468; assay: as above; conditions: incubation time: 72 h
Outline: as §1

[4] = system: HCC1599; assay: as above; conditions: incubation time: 72 h
Outline: as §1

[5] = system: HCC1143; assay: as above; conditions: incubation time: 72 h
Outline: as §1

[6] = system: MCF-10A; assay: as above; conditions: incubation time: 72 h
Outline: as §1

[7] = system: CAL-51; assay: as above; conditions: incubation time: 72 h
Outline: as §1

[8] = system: HDQ-P1; assay: as above; conditions: incubation time: 72 h
Outline: as §1

[9] = system: BT-474; assay: as above; conditions: incubation time: 72 h
Outline: as §1

[10] = system: CAL-85-1; assay: as above; conditions: incubation time: 72 h
Outline: as §1

[11] = system: CAL-148; assay: as above; conditions: incubation time: 72 h
Outline: as §1

[12] = system: HCC1937; assay: as above; conditions: incubation time: 72 h
Outline: as §1

[13] = system: MDA-MB-231; assay: as above; conditions: incubation time: 72 h
Outline: as §1

[14] = system: MDA-MB-453; assay: as above; conditions: incubation time: 72 h
Outline: as §1

[15] = system: Hs578T; assay: as above; conditions: incubation time: 72 h
Outline: as §1

[16] = system: CAL-120; assay: as above; conditions: incubation time: 72 h
Outline: as §1

[17] = system: MFM-223; assay: as above; conditions: incubation time: 72 h
Outline: as §1

[18] = system: MDA-MB-436; assay: as above; conditions: incubation time: 72 h
Outline: as §1

[19] = system: DU-4475; assay: normalised viability (% of control), CellTiter-Blue; higher = more viable cells (about 100 = DMSO control); conditions: 10000 nM; incubation time: 72 h
Method: (§2)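 DSRT, CellTiter-Blue viability, 72 h incubation. Signal is normalised to DMSO and benzethonium chloride controls. Value is the normalised response at dose 9.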

[20] = system: CAL-51; assay: as above; conditions: 10000 nM; incubation time: 72 h
Method: as §2

[21] = system: HDQ-P1; assay: as above; conditions: 10000 nM; incubation time: 72 h
Method: as §2

[22] = system: CAL-85-1; assay: as above; conditions: 10000 nM; incubation time: 72 h
Method: as §2

[23] = system: CAL-148; assay: as above; conditions: 10000 nM; incubation time: 72 h
Method: as §2

[24] = system: MDA-MB-453; assay: as above; conditions: 10000 nM; incubation time: 72 h
Method: as §2

[25] = system: DU-4475; assay: normalised viability (% of control), CellTiter-Blue; higher = more viable cells (100 = DMSO, 0 = benzethonium chloride kill control); conditions: 1 nM; incubation time: 72 h
Outline: (§3)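 Each entry is normalised viability at a single listed concentration within a series. It comes from breast cancer cell lines incubated 72 h with compound in 384-well plates, then measured with CellTiter-Blue fluorescence at 560/590 nm. Every plate was normalised between vehicle (100) and a positive kill control (0).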

[26] = system: MDA-MB-468; assay: as above; conditions: 1 nM; incubation time: 72 h
Outline: as §3

Compound	drug sensitivity score [1]	drug sensitivity score [2]	drug sensitivity score [3]	drug sensitivity score [4]	drug sensitivity score [5]	drug sensitivity score [6]	drug sensitivity score [7]	drug sensitivity score [8]	drug sensitivity score [9]	drug sensitivity score [10]	drug sensitivity score [11]	drug sensitivity score [12]	drug sensitivity score [13]	drug sensitivity score [14]	drug sensitivity score [15]	drug sensitivity score [16]	drug sensitivity score [17]	drug sensitivity score [18]	normalised viability [19]	normalised viability [20]	normalised viability [21]	normalised viability [22]	normalised viability [23]	normalised viability [24]	normalised viability [25]	normalised viability [26]
C[C@H]1C[C@@H]2[C@H]([C@@H](O)C[C@@]3(C)[C@H]2CC[C@]3(O)C(=O)CO)[C@@]2(C)C=CC(=O)C=C12 [Methylprednisolone]	0	0	0	0	0	0	0	0	0	0	0	0	0	0	0	0	0	0	87.4%	92.5%	123%	91%	106%	75.7%	95.4%	101%
Nc1nc2[nH]cc(CCc3ccc(C(=O)N[C@@H](CCC(=O)O)C(=O)O)cc3)c2c(=O)[nH]1 [Pemetrexed]	0	0	1.29	0	0	0.385	0	0	0	0	0	0	2.43	0	0.581	0	0	0	99.7%	91%	106%	55.4%	66.5%	92.6%	99.3%	96.9%
CC1=C(/C=C/C(C)=C/C=C/C(C)=C/C(=O)O)C(C)(C)CCC1 [Tretinoin]	0	0	0	0	0	1.81	0	0	0.87	1.14	0	0	3.64	0	7.23	0	0	0	94.3%	98%	122%	90.6%	78.3%	96.9%	91.8%	109%
Oc1ncc(N(CCCl)CCCl)c(O)n1 [Uracil mustard]	0	0	0	0	0	0	0	0	0	0	0	0	0	0	0	0	0	0	94.9%	91.6%	110%	93.9%	105%	104%	88.3%	104%
CCCCC(=O)OCC(=O)[C@]1(O)Cc2c(O)c3c(c(O)c2[C@@H](O[C@H]2C[C@H](NC(=O)C(F)(F)F)[C@H](O)[C@H](C)O2)C1)C(=O)c1c(OC)cccc1C3=O [Valrubicin]	0	0	5.83	0	0	0	8.29	0	0	0	10.8	0	0	0	0.113	0.113	0	3.14	-0.99%	2.32%	52.9%	18.6%	1.24%	16.2%	93.9%	84.3%
CCCS(=O)(=O)Nc1ccc(F)c(C(=O)c2c[nH]c3ncc(-c4ccc(Cl)cc4)cc23)c1F [Vemurafenib]	1.82	0	0	0	0	2.59	8.51	0	0	0	0	0	0.329	0	0	0	0	0	-0.32%	103%	68.6%	78.3%	94.1%	75.5%	88%	110%
